Reference: US20250043290A1, “RNA SEQUENCES THAT INDUCE FLUORESCENCE OF SMALL MOLECULE FLUOROPHORES, MOLECULAR COMPLEXES, SENSORS, AND METHODS OF USE THEREOF” (CORNELL UNIVERSITY, priority 2021, published 2025)
Entries after “also recorded” stand apart in the source; their conditions may differ.

What was measured:
HEK293T cells = assay: SAM sensor imaging in HEK293T cells; assay type: cell-based; details: 30 mM cycloleucine, within 30 minutes
Procedure: FIG. 4A is a schematic showing the design of the Squash-SAM sensor transducer library. The SAM-III aptamer (top) was fused to Squash (bottom) through a transducer helix (middle). The sensor was selected from a library of randomized transducer sequences generated using the sprouts/clips method. FIG. 4B is a bar graph showing the results of an experiment in which, after three rounds of SELEX, two Squash-SAM sensors, 5-1 and 4-2, were tested for SAM-induced fluorescence. Squash-SAM sensor RNAs (1 μM) were incubated with 10 μM DFHO and 0 or 0.1 mM SAM for 1 hour at 37° C. and then fluorescence was measured (ex. 495 nm; em. 562 nm). Data represent mean values±s.d. for n=3 independent experiments. FIGS. 4C-4D are plots showing the kinetics of fluorescence activation (FIG. 4C) and deactivation (FIG. 4D) of Squash-SAM sensors. Sensor activation was induced by adding 0.1 mM SAM to 1 μM sensor RNAs and 10 μM DFHO at 37° C. Deactivation was measured after removal of SAM by gel filtration. […] SAM binding activates the orange fluorescence by promoting Squash folding and subsequent binding with DFHO. The constitutive green fluorescence of Broccoli-BI is used for normalization, thus eliminating the confounding effect of cell-to-cell variation in sensor expression level, and different fluorescence measurements in thick vs. thin parts of the cell. […] The ratio was measured at 10 minute time intervals. […]

mES cells = assay: Ratiometric SAM imaging in mES cells; assay type: cell-based, Mouse; details: 30 mM cycloleucine, +2i and −2i media, sensor 4-2
HCT116 cells = assay: Ratiometric SAM imaging in HCT116 cells; assay type: cell-based; details: 30 mM cycloleucine, sensor 5-1
Procedure: The control constitutively fluorescent Squash was not affected by withdrawal of threonine and methionine. Scale bar, 20 μm. […] Overall, low cell-to-cell variation was seen (n=8 cells from three separate experiments). […] The rate of SAM drop was slower than the rate in cells cultured in +2i (n=8 cells from three separate experiments). […] SAM levels were measured at 20 minute time intervals after methionine withdrawal and after methionine (100 μM) addition. Cells indicated with a white arrow start with a very high level of SAM and show a slow drop in SAM levels over time, indicating low SAM utilization. Scale bar, 20 μm. […]
5-1 was used because it has higher dynamic range. […] To test if this also holds in HCT116 cells, Squash-SAM sensor 5-1 was expressed in HCT116 cells and SAM level was monitored after threonine depletion. […] To test this, Squash-SAM sensor 5-1 was expressed in HCT116 cells and SAM levels were monitored for 240 minutes after depleting both threonine and methionine. […] The average cellular ratio of O/G fluorescence was quantified for these cells at 15 minute intervals after cycloleucine (30 mM final) treatment. […]
After placing the plates on a Tokai Hit stage top incubator (37° C. and 5% CO2), live fluorescence images were taken with a Nikon Eclipse Ti-E microscope fitted with a CoolSnap HQ2 CCD camera (Photometrics) through a 40× air objective (NA 0.75). […]

[1] = Photophysical properties of fluorophores and RNA-fluorophore complexes (Squash study); assay type: physicochemical; details: 10 μM RNA, 1 μM DFHO
Procedure: All RNAs used for in vitro studies (except the initial hits from SELEX and the DE2-6 mutants) were purified using 8% denaturing PAGE (7M urea) and eluted in 0.3 M NaOAc (pH 5.2) overnight. The RNA was ethanol precipitated and quantified using absorbance in a NanoDrop 2000 spectrometer. All in vitro RNA properties were measured in 40 mM HEPES-KOH (pH 7.4), 100 mM KCl, 0.5 mM MgCl2 buffer unless specified.
Absorption, excitation, and emission spectra were measured using conditions where the RNA is in excess and the fluorophore is limiting to ensure that no free fluorophore contributes to the absorbance or fluorescence signal (FIGS. 7A-7D).
All quantum yields were determined by comparing each RNA-fluorophore complex with Broccli-DFHBI-1T or Corn-DFHO. All measurements for quantum yield were taken in the presence of excess RNA (10 μM final) compared to the fluorophores (0.2 μM final) to avoid interference from unbound fluorophore. The integral of the emission spectra for each Squash-fluorophore complex was compared with the corresponding integrals for Broccoli or Corn to calculate the quantum yield.

[2] = On and off rates of aptamer binding to DFHO; details: 50 nM RNA
Procedure: FIGS. 7A-7H provide photophysical and biophysical characterization of Squash. […] Excess RNA was used to ensure binding of nearly all fluorophore. […] Data represent mean values±s.d. for n=3 independent experiments. […] The fluorescence signal trace was fitted with a monoexponential curve to extract kobs. kobs was plotted as a function of total RNA (50 nM RNA) and fluorophore concentration. kon and koff were extracted as the slope and intercept, respectively. Squash koff (0.014±0.008 s^−1) is very similar to that of Corn (0.018±0.002 s^−1). kon for Squash-DFHO (162300±8100 M^−1 s^−1) is seven-times higher than Corn-DFHO (23000±3000 M^−1 s^−1) which could be due to the high folding of Squash. […]
To measure on and off rates of Squash binding to DFHO, the same protocol that was reported previously to measure kinetic rates for Spinach-DFHBI was used (Han et al., “Understanding the Photophysics of the Spinach-DFHBI RNA Aptamer-Fluorogen Complex to Improve Live-Cell RNA Imaging,” J. Am. Chem. Soc. 135:19033-19038 (2013), which is hereby incorporated by reference in its entirety). Briefly, 50 nM RNA was mixed with different amounts of DFHO and binding kinetics was monitored on the fluorimeter as fluorescence signal increases. Each fluorescence signal trace was fitted with a monoexponential curve and the observed rate constant (kobs) was extracted. […]

[3] = Fluorescence activation of DFAME by aptamers in vitro; assay type: biochemical; details: 20 μM RNA, 2 μM dye
Procedure: To test whether Beetroot can activate DFHO, the fluorescence emission spectrum of the Beetroot-DFHO complex was measured. In brief, 20 μM Beetroot and 2 μM DFHO were mixed, and the fluorescence emission of the Beetroot-DFHO complex was measured. […] To test whether Beetroot can activate DFHBI-1T, the fluorescence emission spectrum of the Beetroot-DFHBI-1T complex was measured using the same protocol described in FIG. 32A. […] To test whether Beetroot can activate BI, the fluorescence emission spectrum of the Beetroot-BI complex was measured using the same protocol described in FIG. 32A. […] To test whether Corn can activate DFAME, the fluorescence emission spectrum of the Corn-DFAME complex was measured using the same protocol described in FIG. 32A.
The eluted RNAs were then ethanol precipitated, reverse transcribed, PCR amplified and in vitro transcribed to yield the pool for the next SELEX round. The presence of fluorescent RNA species in each pool was assessed by mixing 20 μM RNA and 10 μM DFAME and measuring fluorescence emission of this solution on a fluorometer in comparison with the fluorophore alone. At this point, RNAs were cloned into bacterial expression plasmids for FACS-based screening.
dsDNA encoding the top-performing RNA sequences from the brightest bacterial colonies was PCR amplified from the purified plasmids. […] The resulting RNA was then purified using Zymo RNA concentrator columns and quantified by absorbance using a Thermo Scientific NanoDrop 2000 spectrophotometer. For absorption, excitation and emission spectra measurements, “excess RNA” conditions and limiting amount of fluorophore was used to ensure that no free fluorophore contributes to the absorbance or fluorescence signal. The RNA concentration used for fluorescence and absorbance measurements was 20 μM and 50 μM, respectively, while the dye concentration was 2 μM and 5 μM, respectively. All in vitro RNA properties were measured in 40 mM HEPES pH 7.4, 100 mM KCl, 5 mM MgCl2 buffer, unless specified.

| Molecule | Sensor signal (SAM level) after cycloleucine (HEK293T cells) | SAM levels after cycloleucine (mES cells) | SAM levels after cycloleucine (HCT116 cells) | Emission maxima with DFHO [1] [nm] | koff [2] [s⁻¹] | Binding and activation of DFAME fluorescence [3] |
| --- | --- | --- | --- | --- | --- | --- |
| NC1(C(=O)O)CCCC1 [cycloleucine] | rapid decrease in fluorescence; also recorded: markedly reduced | rapid drop of cellular SAM levels; also recorded: markedly depleted | marked drop in SAM | – | – | – |
| Corn: previously reported RNA aptamer that homodimerizes and activates DFHO, SEQ ID NO:103 (CGAGGAAGGAGGUCUGAGGAGGUCACUG; RNA, backbone not given here) [reference compound] | – | – | – | 545 | 0.018 ± 0.002 | weakly binds and activates; also recorded: only weakly bind and activate |
